From US8933075B2, “Compounds useful as antiviral agents, compositions, and methods of use” (priority 2010, dated 2015)

Each compound was assayed on A/Udorn/72 (H3N2) virus (assay: Plaque assay in MDCK cells: EC50 by reduction of plaque number). Settings: MDCK.
Format: cell-based, influenza virus

SMILES	EC50 [nM]
COc1cc(-c2ccc(/C=C3\SC(=S)N(C4C5CC6CC(C5)CC4C6)C3=O)o2)cc(OC)c1OC (stereo not drawn) [Compound 1]	< 100
COc1cc(-c2ccc(/C=C3\SC(=S)N(C4CC5CCC4C5)C3=O)o2)cc(OC)c1OC (stereo not drawn) [Compound 2]	< 100
O=C(O)c1ccc(-c2ccc(/C=C3\SC(=S)N(C4C5CC6CC(C5)CC4C6)C3=O)o2)cc1 (stereo not drawn) [Compound 3]	< 100
O=C(O)c1ccc(-c2ccc(/C=C3\SC(=S)N(C4CC5CCC4C5)C3=O)o2)cc1 (stereo not drawn) [Compound 4]	< 100
O=C1/C(=C/c2ccc(-c3cc(O)cc(O)c3)o2)SC(=S)N1C1C2CC3CC(C2)CC1C3 (stereo not drawn) [Compound 5]	< 100
COc1cc(-c2ccc(/C=C3\SC(=S)N(C4C5CC6CC(C5)CC4C6)C3=O)o2)cc(OC)c1O (stereo not drawn) [Compound 7]	< 100
COc1ccc(-c2ccc(/C=C3\SC(=S)N(C4CC5CCC4C5)C3=O)o2)cc1 (stereo not drawn) [Compound 8]	< 100
COc1ccc(-c2ccc(/C=C3\SC(=S)N(C4C5CC6CC(C5)CC4C6)C3=O)o2)cc1 (stereo not drawn) [Compound 9]	< 100
COc1ccc(-c2ccc(/C=C3\SC(=S)N(C4CC5CCC4C5)C3=O)o2)cc1O (stereo not drawn) [Compound 10]	< 100
Nc1ccc(-c2ccc(/C=C3\SC(=S)N(C4CC5CCC4C5)C3=O)o2)cc1 (stereo not drawn) [Compound 11]	< 100
Nc1ccc(-c2ccc(/C=C3\SC(=S)N(C4C5CC6CC(C5)CC4C6)C3=O)o2)cc1 (stereo not drawn) [Compound 12]	< 100
COC(=O)c1cc(-c2ccc(/C=C3\SC(=S)N(C4C5CC6CC(C5)CC4C6)C3=O)o2)ccc1OC (stereo not drawn) [Compound 13]	< 100
COC(=O)c1cc(-c2ccc(/C=C3\SC(=S)N(C4CC5CCC4C5)C3=O)o2)ccc1OC (stereo not drawn) [Compound 14]	< 100
O=C1/C(=C/c2ccc(-c3ccc(O)cc3)o2)SC(=S)N1C1C2CC3CC(C2)CC1C3 (stereo not drawn) [Compound 15]	< 100
COc1cc(O)cc(-c2ccc(/C=C3\SC(=S)N(C4C5CC6CC(C5)CC4C6)C3=O)o2)c1 (stereo not drawn) [Compound 18]	< 100
COc1cc(-c2ccc(/C=C3\SC(=S)N(C4CC5CCC4C5)C3=O)o2)ccc1O (stereo not drawn) [Compound 24]	< 100
COCOc1cc(-c2ccc(/C=C3\SC(=S)N(C4C5CC6CC(C5)CC4C6)C3=O)o2)cc(OC)c1OC (stereo not drawn) [Compound 25]	< 100
COCOc1cc(-c2ccc(/C=C3\SC(=S)N(C4CC5CCC4C5)C3=O)o2)cc(OC)c1OCOC (stereo not drawn) [Compound 26]	< 100
COCOc1cc(-c2ccc(/C=C3\SC(=S)N(C4CC5CCC4C5)C3=O)o2)cc(OC)c1OC (stereo not drawn) [Compound 27]	< 100
COc1ccc(-c2ccc(/C=C3\SC(=S)N(C4C5CC6CC(C5)CC4C6)C3=O)o2)cc1C(=O)O (stereo not drawn) [Compound 34]	< 100
COc1ccc(-c2ccc(/C=C3\SC(=S)N(C4CC5CCC4C5)C3=O)o2)cc1OCC(=O)O (stereo not drawn) [Compound 35]	< 100
COc1ccc(-c2ccc(/C=C3\SC(=S)N(C4CC5CCC4C5)C3=O)o2)cc1C(=O)O (stereo not drawn) [Compound 36]	< 100
COc1cc(OCC(=O)O)cc(-c2ccc(/C=C3\SC(=S)N(C4C5CC6CC(C5)CC4C6)C3=O)o2)c1 (stereo not drawn) [Compound 38]	< 100
COc1cc(OCC(=O)OC(C)(C)C)cc(-c2ccc(/C=C3\SC(=S)N(C4CC5CCC4C5)C3=O)o2)c1 (stereo not drawn) [Compound 39]	< 100
O=C1/C(=C/c2ccc(-c3ccc(Cl)cc3)o2)SC(=S)N1C1C2CC3CC(C2)CC1C3 (stereo not drawn) [Compound 43]	< 100
CCOC(=O)c1c(F)ccc(-c2ccc(/C=C3\SC(=S)N(C4CCCC4)C3=O)o2)c1F [Compound 45]	< 100
CCOC(=O)c1c(F)ccc(-c2ccc(/C=C3\SC(=S)N(C4CCCCCCC4)C3=O)o2)c1F [Compound 46]	< 100
O=C1/C(=C/c2ccc(-c3ccc(Cl)cc3)o2)SC(=S)N1C1CCCCC1 [Compound 47]	< 100
O=C1/C(=C/c2ccc(-c3ccc(Cl)cc3)o2)SC(=S)N1C1CCCC1 [Compound 48]	< 100
COc1cc(C)c(-c2ccc(/C=C3\SC(=S)N(C4CCCCCCC4)C3=O)o2)cc1C [Compound 49]	< 100
